Active and inactive are the calls of the source.
How the values were obtained:
[1] = A Cell Based Secondary Assay to Explore Cytotoxicity in THP-1 Cells of Compounds that Modulate Mycobacterium tuberculosis in Media Containing Glycerol versus Media without Glycerol (2).; assay type: functional
[2] = Vero cell cytotoxicity, cytotoxicity control for M. tuberculosis inhibitor project, purified and synthesized samples, set 3 (AID 504684); assay type: functional
[3] = A Cell Based Secondary Assay to Explore Cytotoxicity in HepG2 Cells of Compounds that Modulate Mycobacterium tuberculosis in Media Containing Glycerol versus Media without Glycerol (2).; assay type: functional
[4] = microbe, parasite or virus in culture; assay type: functional; settings: Mycobacterium tuberculosis
[5] = biological target: Heat shock protein HSP 90-alpha (Homo sapiens, UniProt P07900); assay type: functional, organism-based
[6] = biological target: Calcium/calmodulin-dependent protein kinase type II subunit delta (Homo sapiens, UniProt Q13557); assay type: functional
[7] = biological target: Calcium/calmodulin-dependent protein kinase type II subunit gamma (Homo sapiens, UniProt Q13555); assay type: functional
[8] = biological target: Calcium/calmodulin-dependent protein kinase type II subunit beta (Homo sapiens, UniProt Q13554); assay type: functional
[9] = biological target: Tyrosine-protein kinase FRK (Homo sapiens, UniProt P42685); assay type: functional;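 also: FRK tested as one member of a kinome panel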
INS1 = assay: suppression of NO production in INS-1E cells – cell-based, Griess absorbance, dry powder, set 2, dose response (AID 488868); assay type: functional; settings: Rattus norvegicus
[10] = biological target: Serine/threonine-protein phosphatase (Candida dubliniensis (strain CD36 / CBS 7987 / NCPF 3949 / NRRLY-17841) (Yeast), UniProt B9W6M3); assay: blockers of CaCl2-induced CDRE-lacZ signaling – S. cerevisiae, luminescence, secondary, dose response (AID 2388); assay type: functional, cell-based;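 also: yeast reporter cells carrying a calcineurin-responsive lacZ construct stimulated with calcium chloride; luminescent beta-galactosidase reporter signal in whole cells rather than isolated phosphatase activity; potency for inhibition where a drop in reporter signal means calcineurin blockade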
[11] = Trypanosoma cruzi growth suppression in host cells – NIH3T3 host cells, beta-gal luminescence, confirmation (AID 2044); assay type: functional, cell-based;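 also: intracellular parasites grown in NIH/3T3 mouse fibroblasts as host cells; luminescent beta-galactosidase reporter signal from transgenic T. cruzi replicating inside host cells; inhibitors lower the luminescence signal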
Candida albicans [12] = assay: Candida growth reduction in fluconazole presence – CaCi-2 strain, Alamar Blue, dry powder, set 2, antifungal resistance reversal project, dose response (AID 488930); assay type: functional, organism-based
Protein Wnt-3a = Protein Wnt-3a (Mus musculus, UniProt P27467); assay: antagonism of Wnt3a pathway luciferase reporter – Wnt-LIGHT cells, luminescence, selectivity assay for Gli-SUFU antagonist project, dose response (AID 651570); assay type: functional; settings: read-out: IC50_Mean;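 also: Wnt-LIGHT reporter cells stimulated with conditioned medium from Wnt3a-producing cells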
Candida albicans [13] = assay: resistant Candida growth with fluconazole co-treatment – CaCi-8 strain, Alamar Blue, dry powder, set 2, dose response (AID 488909); assay type: functional, organism-based
HEK293 = assay: EBV LMP1 TES2 canonical NF-kB signalling blockers – cell-based, HEK293, luciferase, cherry-pick, dose response (AID 588343); assay type: functional; settings: Homo sapiens
[14] = NIH3T3 cell viability loss – ATP luminescence, mouse fibroblasts, counter-screen, dose response (AID 2010); assay type: functional, cell-based;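 also: cells exposed to compound for about 90 hours before reading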
[15] = NIH-3T3 fibroblast cytotoxicity, dose response, cytotoxicity control, cell-based, fluorescence, Alamar Blue, secondary assay (AID 2327); assay type: functional;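 also: NIH-3T3 mouse fibroblasts cultured with fluconazole at 8 µg/mL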
[16] = biological target: ATP-dependent molecular chaperone HSP82 (Candida albicans (strain WO-1) (Yeast), UniProt C4YTQ8); assay: steroid-induced GRE reporter decrease in yeast – S. cerevisiae, luminescence, Hsp90 inhibitor project, dose response (AID 2400); assay type: functional, cell-based;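 also: beta-galactosidase luminescence from glucocorticoid response element reporter as proxy for Hsp90 function; inhibitor potency where signal loss means Hsp90 inhibition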
NIH3T3 = assay: mammalian cell viability counter-check – Alamar Blue, fluconazole, dry powder, cytotoxicity control for antifungal drug resistance project, dose response (AID 488809); assay type: functional, cell-based; settings: Mus musculus
Candida albicans [17] = assay: antifungal activity against resistant Candida strain – CaCi-8, fluconazole, Alamar Blue, dry powder, dose response (AID 488807); assay type: functional, organism-based
Candida albicans [18] = assay: Candida growth effect without fluconazole – C. albicans CaCi-2, dry powder, counter-screen for antifungal drug resistance project, dose response (AID 488802); assay type: functional, organism-based
[19] = fluconazole-exposed Candida albicans growth modulators – fluorescence, retest, confirmation (AID 2467); assay type: functional, cell-based
Candida albicans [20] = assay: C. albicans growth inhibition with fluconazole – CaCi-2 strain, Alamar Blue, dry powder, set 4, dose response (AID 488943); assay type: functional, organism-based
[21] = biological target: Serine/threonine-protein kinase Chk1 (Homo sapiens, UniProt O14757); assay type: functional;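 also: measured as one member of a kinome-wide kinase profiling panel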
[22] = biological target: Serine/threonine-protein kinase Nek2 (Homo sapiens, UniProt P51955); assay type: functional
[23] = biological target: Macrophage-stimulating protein receptor (Homo sapiens, UniProt Q04912); assay: Navigating the Kinome. Panel member name: MST1R; assay type: functional
[24] = biological target: G protein-coupled receptor kinase 5 (Homo sapiens, UniProt P34947); assay: Navigating the Kinome. Panel member name: GPRK5; assay type: functional
[25] = biological target: Dual specificity protein kinase CLK4 (Homo sapiens, UniProt Q9HAZ1); assay type: functional
[26] = biological target: Glycogen synthase kinase-3 alpha (Homo sapiens, UniProt P49840); assay type: functional;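 also: GSK3A result taken from a broad kinome-wide kinase panel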
[27] = biological target: Tyrosine-protein kinase Fyn (Homo sapiens, UniProt P06241); assay type: functional
[28] = biological target: Cyclin-dependent kinase 5 (Homo sapiens, UniProt Q00535); assay type: functional;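 also: CDK5 measured as one member of a kinase profiling panel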
[29] = biological target: Serine/threonine-protein kinase PAK 4 (Homo sapiens, UniProt O96013); assay type: functional;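 also: value obtained within a kinome profiling panel in which PAK4 was one of the panel members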
Activin receptor type-1 = Activin receptor type-1 (Homo sapiens, UniProt Q04771); assay: Navigating the Kinome. Panel member name: ACVR1; assay type: functional
[30] = biological target: Serine/threonine-protein kinase TAO1 (Homo sapiens, UniProt Q7L7X3); assay type: functional
[31] = biological target: Dual specificity mitogen-activated protein kinase kinase 2 (Homo sapiens, UniProt P36507); assay: Navigating the Kinome. Panel member name: MAP2K2; assay type: functional
[32] = biological target: Calcium/calmodulin-dependent protein kinase type II subunit alpha (Homo sapiens, UniProt Q9UQM7); assay: Navigating the Kinome. Panel member name: CAMK2A; assay type: functional
[33] = biological target: Cyclin-dependent kinase 8 (Homo sapiens, UniProt P49336); assay: Navigating the Kinome. Panel member name: CDK8; assay type: functional
[34] = biological target: Mitogen-activated protein kinase 8 (Homo sapiens, UniProt P45983); assay type: functional;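 also: value comes from one member of a kinome-wide kinase profiling panel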
[35] = biological target: Serine/threonine-protein kinase pim-1 (Homo sapiens, UniProt P11309); assay type: functional
[36] = biological target: Serine/threonine-protein kinase D3 (Homo sapiens, UniProt O94806); assay type: functional;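 also: determined within a kinase panel screen, with PRKCN as the panel member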
[37] = biological target: Tyrosine-protein kinase Lck (Homo sapiens, UniProt P06239); assay type: functional;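 also: lck was assayed as one member of a kinase panel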
Focal adhesion kinase 1 = Focal adhesion kinase 1 (Homo sapiens, UniProt Q05397); assay type: functional;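 also: measured as one member of a kinome panel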
Activated CDC42 kinase 1 = Activated CDC42 kinase 1 (Homo sapiens, UniProt Q07912); assay: Navigating the Kinome. Panel member name: ACK1; assay type: functional
[38] = biological target: Dual specificity protein kinase CLK2 (Homo sapiens, UniProt P49760); assay type: functional
[39] = biological target: ALK tyrosine kinase receptor (Homo sapiens, UniProt Q9UM73); assay type: functional;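 also: ALK tested as one member of a kinase panel screen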
[40] = biological target: Mitogen-activated protein kinase 14 (Homo sapiens, UniProt Q16539); assay type: functional;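 also: part of a kinome-wide panel, MAPK14 entry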
[41] = biological target: Cyclin-dependent kinase 7 (Homo sapiens, UniProt P50613); assay type: functional;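 also: value comes from a kinome-wide kinase profiling panel in which CDK7 is one member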
[42] = biological target: Mitogen-activated protein kinase kinase kinase kinase 4 (Homo sapiens, UniProt O95819); assay type: functional
[43] = biological target: Tyrosine-protein kinase BTK (Homo sapiens, UniProt Q06187); assay type: functional
[44] = biological target: Mitogen-activated protein kinase 9 (Homo sapiens, UniProt P45984); assay type: functional;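 also: value from a kinome panel profiling assay, MAPK9 panel entry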
[45] = biological target: Death-associated protein kinase 3 (Homo sapiens, UniProt O43293); assay type: functional;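 also: measured as one member of a kinome-wide profiling panel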
[46] = biological target: Vascular endothelial growth factor receptor 1 (Homo sapiens, UniProt P17948); assay type: functional;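 also: measured within a kinome-wide profiling panel, FLT1 as the panel member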
[47] = biological target: Fibroblast growth factor receptor 1 (Homo sapiens, UniProt P11362); assay type: functional
[48] = biological target: Dual specificity tyrosine-phosphorylation-regulated kinase 1A (Homo sapiens, UniProt Q13627); assay type: functional;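 also: measured against DYRK1A as one member of a broad kinome profiling panel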
Aurora kinase A = Aurora kinase A (Homo sapiens, UniProt O14965); assay type: functional;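 also: value from the Navigating the Kinome kinase panel profiling, panel entry STK6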
Aurora kinase B = Aurora kinase B (Homo sapiens, UniProt Q96GD4); assay type: functional
[49] = biological target: BDNF/NT-3 growth factors receptor (Homo sapiens, UniProt Q16620); assay type: functional;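 also: NTRK2 measured as one member of a broad kinome-wide kinase profiling panel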
[50] = biological target: Casein kinase I isoform alpha (Homo sapiens, UniProt P48729); assay type: functional
[51] = biological target: Tyrosine-protein kinase JAK3 (Homo sapiens, UniProt P52333); assay type: functional
LIM domain kinase 1 = LIM domain kinase 1 (Homo sapiens, UniProt P53667); assay: Navigating the Kinome. Panel member name: LIMK1; assay type: functional

Cyclin-dependent kinase 5, sequence (Q00535 whole entry): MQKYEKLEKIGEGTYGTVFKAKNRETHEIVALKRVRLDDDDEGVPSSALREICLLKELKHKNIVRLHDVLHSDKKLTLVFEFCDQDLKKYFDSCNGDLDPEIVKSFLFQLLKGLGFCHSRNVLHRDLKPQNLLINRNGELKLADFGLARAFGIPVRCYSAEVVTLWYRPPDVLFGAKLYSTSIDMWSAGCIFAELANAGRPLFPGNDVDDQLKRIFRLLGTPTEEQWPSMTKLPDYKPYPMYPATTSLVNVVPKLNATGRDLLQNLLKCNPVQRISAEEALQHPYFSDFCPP
Serine/threonine-protein kinase Chk1, sequence (O14757 whole entry): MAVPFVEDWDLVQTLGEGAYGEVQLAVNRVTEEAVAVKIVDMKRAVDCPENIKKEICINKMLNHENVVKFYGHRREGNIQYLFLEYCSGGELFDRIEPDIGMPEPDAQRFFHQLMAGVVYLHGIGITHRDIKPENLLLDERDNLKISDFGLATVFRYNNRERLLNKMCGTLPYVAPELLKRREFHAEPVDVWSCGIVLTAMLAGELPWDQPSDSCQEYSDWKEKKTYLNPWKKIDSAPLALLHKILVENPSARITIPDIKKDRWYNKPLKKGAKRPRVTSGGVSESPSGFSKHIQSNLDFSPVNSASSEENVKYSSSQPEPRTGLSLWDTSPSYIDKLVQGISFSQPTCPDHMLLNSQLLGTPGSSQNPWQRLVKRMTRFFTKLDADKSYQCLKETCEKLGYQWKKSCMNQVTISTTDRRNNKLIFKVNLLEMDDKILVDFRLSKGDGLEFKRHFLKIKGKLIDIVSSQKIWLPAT
Mitogen-activated protein kinase kinase kinase kinase 4, sequence (O95819 whole entry): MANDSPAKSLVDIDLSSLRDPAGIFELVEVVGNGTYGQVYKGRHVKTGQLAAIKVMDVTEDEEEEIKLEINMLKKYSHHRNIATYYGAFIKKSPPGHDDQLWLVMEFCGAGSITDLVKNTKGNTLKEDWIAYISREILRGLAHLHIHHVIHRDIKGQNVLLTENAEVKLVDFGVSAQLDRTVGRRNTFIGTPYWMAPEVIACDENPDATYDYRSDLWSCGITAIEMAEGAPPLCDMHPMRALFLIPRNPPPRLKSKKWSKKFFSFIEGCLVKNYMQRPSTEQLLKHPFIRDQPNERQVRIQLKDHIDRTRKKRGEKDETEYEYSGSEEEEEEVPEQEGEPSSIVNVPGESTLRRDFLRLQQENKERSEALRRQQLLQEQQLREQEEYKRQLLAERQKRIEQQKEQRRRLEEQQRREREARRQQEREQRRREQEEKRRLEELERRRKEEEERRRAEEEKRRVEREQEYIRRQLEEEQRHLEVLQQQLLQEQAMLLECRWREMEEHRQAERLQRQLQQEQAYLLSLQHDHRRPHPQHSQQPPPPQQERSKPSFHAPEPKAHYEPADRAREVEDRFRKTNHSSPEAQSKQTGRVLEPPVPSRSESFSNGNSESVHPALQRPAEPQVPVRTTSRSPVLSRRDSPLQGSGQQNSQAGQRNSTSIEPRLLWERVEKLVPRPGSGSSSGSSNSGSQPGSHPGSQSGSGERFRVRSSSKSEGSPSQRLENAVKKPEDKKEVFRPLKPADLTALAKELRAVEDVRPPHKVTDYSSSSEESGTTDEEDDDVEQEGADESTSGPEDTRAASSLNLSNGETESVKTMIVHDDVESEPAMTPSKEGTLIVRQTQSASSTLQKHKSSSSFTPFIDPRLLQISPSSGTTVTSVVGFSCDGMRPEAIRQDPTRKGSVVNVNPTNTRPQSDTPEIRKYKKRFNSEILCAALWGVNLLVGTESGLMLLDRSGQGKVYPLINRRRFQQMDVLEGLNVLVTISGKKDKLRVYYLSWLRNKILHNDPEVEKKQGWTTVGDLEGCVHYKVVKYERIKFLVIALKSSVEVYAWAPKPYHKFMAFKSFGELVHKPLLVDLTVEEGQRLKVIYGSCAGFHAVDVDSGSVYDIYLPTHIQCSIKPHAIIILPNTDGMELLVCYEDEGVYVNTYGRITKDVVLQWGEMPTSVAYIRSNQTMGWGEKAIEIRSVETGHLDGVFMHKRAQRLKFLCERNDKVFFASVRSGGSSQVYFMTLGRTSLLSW
Aurora kinase A, sequence (O14965 whole entry): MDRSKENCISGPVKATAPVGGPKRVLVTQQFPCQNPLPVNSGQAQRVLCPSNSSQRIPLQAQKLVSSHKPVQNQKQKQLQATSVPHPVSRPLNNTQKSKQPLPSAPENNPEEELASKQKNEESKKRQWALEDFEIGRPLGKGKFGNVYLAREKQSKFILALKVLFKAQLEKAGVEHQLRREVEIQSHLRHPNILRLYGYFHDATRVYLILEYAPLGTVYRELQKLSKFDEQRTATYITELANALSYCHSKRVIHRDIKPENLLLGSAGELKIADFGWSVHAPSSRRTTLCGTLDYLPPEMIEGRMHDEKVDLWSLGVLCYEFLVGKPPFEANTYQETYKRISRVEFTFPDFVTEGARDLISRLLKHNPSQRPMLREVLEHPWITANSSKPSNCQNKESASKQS
Tyrosine-protein kinase Fyn, sequence (P06241 whole entry): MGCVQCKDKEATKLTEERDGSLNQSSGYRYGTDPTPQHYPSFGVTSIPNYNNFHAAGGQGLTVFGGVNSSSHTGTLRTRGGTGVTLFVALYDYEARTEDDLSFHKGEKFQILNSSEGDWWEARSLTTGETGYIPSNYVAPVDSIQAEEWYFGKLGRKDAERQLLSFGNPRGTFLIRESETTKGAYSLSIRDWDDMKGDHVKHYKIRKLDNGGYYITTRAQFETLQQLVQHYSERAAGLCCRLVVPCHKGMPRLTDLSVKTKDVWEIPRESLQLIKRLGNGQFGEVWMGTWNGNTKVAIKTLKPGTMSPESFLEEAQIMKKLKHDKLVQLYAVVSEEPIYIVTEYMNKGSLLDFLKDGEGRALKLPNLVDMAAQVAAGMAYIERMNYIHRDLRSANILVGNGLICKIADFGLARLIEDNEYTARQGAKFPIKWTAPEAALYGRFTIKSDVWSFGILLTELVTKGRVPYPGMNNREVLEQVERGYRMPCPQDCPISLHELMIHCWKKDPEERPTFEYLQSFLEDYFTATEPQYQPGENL
Vascular endothelial growth factor receptor 1, sequence (P17948 whole entry): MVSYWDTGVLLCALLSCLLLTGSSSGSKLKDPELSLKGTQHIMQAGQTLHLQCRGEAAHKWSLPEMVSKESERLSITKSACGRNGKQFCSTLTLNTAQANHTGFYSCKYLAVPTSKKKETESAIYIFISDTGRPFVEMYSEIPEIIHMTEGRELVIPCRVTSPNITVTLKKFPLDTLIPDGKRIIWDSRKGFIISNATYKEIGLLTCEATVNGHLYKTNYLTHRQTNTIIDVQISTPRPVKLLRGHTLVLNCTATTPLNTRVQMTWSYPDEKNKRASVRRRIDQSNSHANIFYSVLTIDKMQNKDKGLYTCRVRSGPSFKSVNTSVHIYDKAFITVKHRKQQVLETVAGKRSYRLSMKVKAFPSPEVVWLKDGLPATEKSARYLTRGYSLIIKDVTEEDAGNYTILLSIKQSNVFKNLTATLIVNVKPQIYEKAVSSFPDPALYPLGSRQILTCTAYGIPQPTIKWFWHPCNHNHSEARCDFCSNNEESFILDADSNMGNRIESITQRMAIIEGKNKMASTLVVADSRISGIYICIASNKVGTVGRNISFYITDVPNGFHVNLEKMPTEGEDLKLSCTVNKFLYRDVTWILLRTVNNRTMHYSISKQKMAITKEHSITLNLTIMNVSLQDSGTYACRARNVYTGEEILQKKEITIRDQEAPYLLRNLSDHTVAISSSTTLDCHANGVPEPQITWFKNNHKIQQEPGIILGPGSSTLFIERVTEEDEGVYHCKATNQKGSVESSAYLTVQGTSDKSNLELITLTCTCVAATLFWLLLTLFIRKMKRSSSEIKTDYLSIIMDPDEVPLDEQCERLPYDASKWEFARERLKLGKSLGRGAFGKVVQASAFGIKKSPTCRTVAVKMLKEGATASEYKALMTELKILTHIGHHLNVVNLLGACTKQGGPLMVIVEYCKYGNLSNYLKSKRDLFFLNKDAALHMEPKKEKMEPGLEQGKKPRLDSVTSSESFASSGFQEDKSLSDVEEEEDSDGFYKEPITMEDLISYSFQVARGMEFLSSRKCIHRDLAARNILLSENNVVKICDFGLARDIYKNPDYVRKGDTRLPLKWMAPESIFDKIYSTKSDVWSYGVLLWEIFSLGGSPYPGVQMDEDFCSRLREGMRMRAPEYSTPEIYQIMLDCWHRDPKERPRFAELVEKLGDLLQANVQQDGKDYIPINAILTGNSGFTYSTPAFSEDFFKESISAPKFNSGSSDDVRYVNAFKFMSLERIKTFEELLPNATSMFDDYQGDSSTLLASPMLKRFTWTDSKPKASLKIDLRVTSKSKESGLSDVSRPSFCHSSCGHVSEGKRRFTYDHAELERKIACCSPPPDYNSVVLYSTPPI
Dual specificity protein kinase CLK4, sequence (Q9HAZ1 whole entry): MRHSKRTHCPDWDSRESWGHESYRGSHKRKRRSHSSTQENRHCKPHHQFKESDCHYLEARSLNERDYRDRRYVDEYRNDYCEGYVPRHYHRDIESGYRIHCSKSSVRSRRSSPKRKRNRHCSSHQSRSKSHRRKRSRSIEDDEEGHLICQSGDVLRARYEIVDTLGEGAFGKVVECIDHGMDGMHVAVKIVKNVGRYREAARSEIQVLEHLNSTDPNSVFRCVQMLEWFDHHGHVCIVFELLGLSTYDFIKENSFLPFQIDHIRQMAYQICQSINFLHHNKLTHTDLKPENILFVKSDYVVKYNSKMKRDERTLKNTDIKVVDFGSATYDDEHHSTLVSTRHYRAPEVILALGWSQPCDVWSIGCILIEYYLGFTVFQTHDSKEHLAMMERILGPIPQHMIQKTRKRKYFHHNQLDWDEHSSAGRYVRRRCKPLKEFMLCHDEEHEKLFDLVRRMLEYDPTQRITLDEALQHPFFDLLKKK

Structure (SMILES): CCC(C)Nc1ccc(NC(C)CC)cc1 (configuration not stated)
- CC50 [1]: 3.8 µM (active)
- CC50 [2]: 11.2 µM (active)
- CC50 [3]: 6.68 µM (active)
- CC50 [4]: 15.9 µM (active)
- AC50 [5]: 4.52 µM (active)

Structure (SMILES): CCCC(=O)c1ccc(NCc2c[nH]nc2-c2ccc(C(F)(F)F)cc2)cc1
- Ki [6]: 3.98 µM (active)
- Ki [7]: 3.98 µM (active)
- Ki [8]: 1.26 µM (active)
- Ki [9]: 2 µM (active)

Structure (SMILES): C[C@@H]1CN([C@@H](C)CO)C(=O)c2cccc(NS(=O)(=O)c3ccccc3)c2O[C@H]1CN(C)Cc1ccc(C(F)(F)F)cc1
- AC50 (INS1): 242 µM (active)

Structure (SMILES): O=C(c1ccc(Cl)cc1)N1CCN(c2ccnc3cc(Cl)ccc23)CC1
- EC50 [10]: > 180 µM (inactive)
- EC50 [11]: 1.34 µM (active)
- AC50 (Candida albicans [12]): 0.522 µM (active)
- IC50 (Protein Wnt-3a): 8.3 µM (active)
- AC50 (Candida albicans [13]): 3.46 µM (active)
- AC50 (HEK293): 16.4 µM (active)
- EC50 [14]: > 60 µM (not active)
- EC50 [15]: > 150 µM (inactive)
- EC50 [16]: > 150 µM (inactive)
- AC50 (NIH3T3): 22.9 µM (active)
- AC50 (Candida albicans [17]): 0.87 µM (active)
- AC50 (Candida albicans [18]): 3.73 µM (active)
- EC50 [19]: 0.742 µM (active)
- AC50 (Candida albicans [20]): 0.306 µM (active)
- AC50 (Candida albicans [20]; Candida albicans): 0.362 µM (active)

Structure (SMILES): Nc1ccc2c(C(=O)O)n(-c3ccccc3)nc2c1
- Ki [21]: 0.398 µM (active)
- Ki [22]: 2 µM (active)
- Ki [23]: > 3.98 µM (inactive)
- Ki [24]: > 3.98 µM (inactive)
- Ki [25]: 0.501 µM (active)
- Ki [26]: > 3.98 µM (inactive)
- Ki [27]: > 6.31 µM (inactive)
- Ki [28]: 2.51 µM (active)
- Ki [29]: > 5.01 µM (inactive)
- Ki (Activin receptor type-1): > 3.98 µM (inactive)
- Ki [30]: > 6.31 µM (inactive)
- Ki [31]: > 3.98 µM (inactive)
- Ki [32]: > 3.98 µM (inactive)
- Ki [33]: 3.16 µM (active)
- Ki [34]: > 5.01 µM (inactive)
- Ki [35]: > 6.31 µM (inactive)
- Ki [36]: > 3.98 µM (inactive)
- Ki [37]: > 6.31 µM (inactive)
- Ki (Focal adhesion kinase 1): > 6.31 µM (inactive)
- Ki (Activated CDC42 kinase 1): > 3.98 µM (inactive)
- Ki [38]: > 3.98 µM (inactive)
- Ki [39]: > 6.31 µM (inactive)
- Ki [40]: > 3.98 µM (inactive)
- Ki [41]: > 3.98 µM (inactive)
- Ki [42]: > 5.01 µM (inactive)
- Ki [43]: > 6.31 µM (inactive)
- Ki [44]: > 3.98 µM (inactive)
- Ki [45]: > 5.01 µM (inactive)
- Ki [46]: > 3.98 µM (inactive)
- Ki [47]: > 3.98 µM (inactive)
- Ki [48]: 1 µM (active)
- Ki (Aurora kinase A): 1.26 µM (active)
- Ki (Aurora kinase B): > 3.98 µM (inactive)
- Ki [49]: > 3.98 µM (inactive)
- Ki [50]: 2.51 µM (active)
- Ki [51]: > 5.01 µM (inactive)
- Ki (LIM domain kinase 1): 0.794 µM (active)

Source: ChEMBL document CHEMBL1201862, “PubChem BioAssay data set” (2004)
